One experiment deals with Indomethacin ulcer. Nature of the experiment: Anti-ulcer activity: Indomethacin ulcer. The class given is in vivo, Wistar strain rats. Conditions: for Potency ratio: Cimetidine = 1; for ED50: 5 h, Indomethacin ulcer, read-out: ID50 (the source's name). How it is done:
Six Wistar strain rats (male, 200 to 250 g) per group were starved for 24 hours, after which each drug was orally administered, and after 30 minutes, Indomethacin was injected subcutaneously at a dose of 30 mg/kg. After 5 hours, each rat was killed, and the stomach was removed and fixed with 3% formalin, after which the lengths of ulcers formed in the stomach was measured under the binocular stereoscopic microscope (10×), and the sum total of the lengths was taken as the ulcer index. To a control group was administered 0.5% Tween 80 physiological saline. The inhibition percentage was determined from the following equation: [formula]

Experiment [1] deals with Stress ulcer induced by water-immersion. Nature of the experiment: Anti-ulcer activity: Stress ulcer induced by water-immersion. The class given is in vivo, Wistar rats. Conditions: for Inhibition percentage / ED50: oral; for Potency ratio: Cimetidine = 1; for ED50: Rattus norvegicus, 15 h, water-immersion stress ulcer, read-out: ID50 (the source's name). How it is done: (iii) Stress ulcer induced by water-immersion
An experiment was carried out according to the method of Takagi et al. [K. Takagi et al., Jap.
Six Wistar rats (male, 230 to 280 g) per group were starved for 24 hours, after which each drug was orally administered. After 30 minutes, the rats were placed in stress cage, immersed in water at 23° C. to the depth of xiphoid, and allowed to stand therein for 15 hours. Thereafter, the stomach of each rat was removed and then fixed with 3% formalin, after which the areas of the ulcers formed were measured under the binocular stereoscopic microscope (10×), and the sum total of the areas was taken as the ulcer index. To a control group was administered 0.5% Tween 80 physiological saline.
The inhibition percentage was determined from the following equation: [formula]

For experiment [2], the system named is gastric acid secretion. Kind of experiment: Inhibitory effect on gastric acid secretion, pylorus ligation method (histamine). Conditions: Rattus norvegicus, oral, histamine 25 mg/kg s.c., read-out: Inhibition percentage (gastric acid secretion). The format is in vivo, Wistar strain rats. How it is done:
Five to six Wistar strain rats (male, 190 to 230 g) per group were starved for 35 hours, after which each drug was orally administered, and after 2 hours, the pylorus of each rat was ligated under ether anesthesia. […] After 3 hours, each rat was killed, after which the cardiac portion was ligated, and the stomach was removed. After 1 ml of distilled water was injected into the stomach, the gastric juice was collected by centrifugation and its volume was measured. The acidity of the gastric juice was measured by titrating 1 ml of the gastric juice with a 0.1N aqueous sodium hydroxide solution, taking pH 7.0 as the end-point. Physiological saline was administered to a control group.
The inhibition percentage of gastric acid secretion was determined from the following equation: [formula]

The next experiment concerns Reserpine ulcer. Kind of experiment: Anti-ulcer activity: Reserpine ulcer. The class given is in vivo, Wistar strain rats. Conditions: oral; for ED50: Rattus norvegicus, 18 h, reserpine ulcer, read-out: ID50 (the source's name). On the procedure:
An experiment was carried out according to the method of Adami et al. [E. Adami et al., Arch. int.
Ten Wistar strain rats (male, 180 to 200 g) per group were starved for 30 hours, after which each drug was orally administered, and after 1 hour, reserpine was injected subcutaneously at a dose of 10 mg/kg. After 18 hours, the stomach was removed and fixed with 3% formalin, and thereafter the lengths of the ulcers formed in the stomach were measured with callipers. The measured values were converted to the scores described below, and the sum total of the scores was taken as the ulcer index.
That is to say, 1 to 5 pin point ulcers are scored as 1, 6 or more pin point ulcers are scored as 2, ulcers of 1 mm or less in length are scored as 1, ulcers of 1 to 2 mm in length are scored as 2, ulcers of 2 to 4 mm in length are scored as 4, and ulcers of 4 mm or more in length are scored as 8.
(§1) To a control group was administered 0.5% Tween 80 physiological saline. The inhibition percentage was determined from the following equation: [formula]

In experiment [3] the test system is gastric acid secretion. Kind of experiment: Inhibitory effect on gastric acid secretion, perfused stomach preparation of anesthetized rat (histamine stimulated). The format is in vivo, Wistar strain rats. Conditions: intravenous; for ED100: Rattus norvegicus, cumulative, histamine 30 μg/kg/min, read-out: Dose for complete inhibition; for Duration: time from complete inhibition until pH of perfusate became 4. How it is done:
(i) Perfused stomach preparation of anesthetized rat [according to M. N. Ghosh and H. O. Schild: Brit. J. Pharmacol. 13, 54 (1958)]
Wistar strain rats (male, 200 to 250 g) starved for 18 hours were anesthetized with urethane and then subjected to laparotomy, after which the forestomach region of the stomach of each rat was incised. The whole interior of the stomach was sufficiently washed with physiological saline, and the cut edges were sutured. A silicon tube was inserted into the stomach to a length of about 5 mm from the duodenum side and fixed. Subsequently, the stomach was perfused with physiological saline adjusted to a pH of about 10 with an aqueous sodium hydroxide solution at a constant rate (1 ml/min) through an oral sonde, and the change in pH of the perfusate which had flowed out through the silicone tube was continuously recorded. During the perfusion, histamine (30 μg/kg/min) was continuously injected, as an agent for stimulating gastric acid secretion, through the femoral vein at a rate of 0.3 ml/min. Each drug was intravenously administered when the acid secretion became almost constant (pH 3.3±0.2), and cumulatively administered when the inhibition of acid secretion at each dose reached a plateau.
The number of experiments was three for each dose.

For experiment [4], the system named is isolated guinea pig atrium. Kind of experiment: Effect on isolated guinea pig atrium (histamine-induced heart rate). Conditions: for Potency ratio: Cimetidine = 1; for IC50: right atrium, 5×10^-6 M histamine, 30° C., read-out: ID50 (the source's name). Further details: species or system Hartley guinea pig. On the procedure: Hartley guinea pig (male, 300 to 400 g) was killed by blood-letting, immediately after which the heart was isolated, and the right atrium was separated in a Krebs-Henseleit solution and used as a preparation. […] The preparation was trained in a bath fluid, and after the heart rate became constant, 5×10^-6 M of histamine was administered. After the heart rate became constant, each drug was administered cumulatively.
The inhibition percentage was determined from the following equation: [formula] HRmin : heart rate before the administration of histamine HRmax : heart rate after the administration of histamine
HRx : heart rate at the time of the administration of each drug.
The number of experiments were five for each dose.

Experiment [5] relates to Mepirizole-induced duodenal ulcer. Nature of the experiment: Anti-ulcer activity: Mepirizole-induced duodenal ulcer. The class given is in vivo, Wistar strain rats. On the procedure:
(ii) Mepirizole-induced duodenal ulcer
A test was carried out according to the method of Okabe et al. [S. Okabe et al., Gastrcenterology, 80, 1241 (1981)].
Six Wistar strain rats (male, 200 to 250 g) per group were starved for 24 hours, after which each drug was orally administered, and after 30 minutes, mepirizole was injected subcutaneously at a dose of 200 mg/kg. After 18 hours, the stomach and duodenum were removed and fixed with 3% formalin, after which the areas and depths of the ulcers formed in the duodenum were measured under the binocular stereoscopic microscope (10×). The scores were given in 7 grades depending on the areas and depths of the ulcers, and the sum total of the scores was taken as the ulcer index. The scores were given as follows:
That is to say, the score is 0 at an ulcer area of 0 to 0.2 mm^2, 1 at 0.2 to 1.0 mm^2, 2 at 1 to 3 mm^2, 3 at 3 to 6 mm^2, 4 at 6 to 10 mm^2,5 at 10 mm^2 or more, the ulcer in the condition immediately before perforation is scored as 6, and the ulcer which had caused perforation is scored as 7.
as §1

Where [6] appears, read: Rattus norvegicus, oral, read-out: Inhibition percentage.

Take `Cc1cccc(C(O)CNC(=C[N+](=O)[O-])NCCSCc2cc(C)c(CN(C)C)s2)c1` (stereo not drawn) [compound 29, N-{2-[[5-(dimethylamino)methyl-4-methyl-2-thienyl]methylthio]ethyl}-N'-[2-hydroxy-2-(3-methylphenyl)ethyl]-2-nitro-1,1-ethenediamine]: the Potency ratio in the experiment on Indomethacin ulcer was 31.3; in experiment [1] it was 11.1. In addition, the ED50 in the experiment with Indomethacin ulcer (Rattus norvegicus, oral) was 0.88 mg/kg; in experiment [1] it was 1.4 mg/kg; with Reserpine ulcer, 4.7 mg/kg. Also, the inhibition in vivo at 0.3 mg/kg with Indomethacin ulcer (Rattus norvegicus, 0.3 mg/kg, oral, read-out: Inhibition percentage) stood at 8%. The inhibition in vivo at 1 mg/kg with Indomethacin ulcer (setting [6]) worked out at 57%; in the experiment with gastric acid secretion [2], 56%. The Inhibition percentage in experiment [1] (1 mg/kg) was 37%; in experiment [1] (3 mg/kg) it was 78%; in the experiment with Reserpine ulcer (1 mg/kg) it was 21%; in the experiment on Reserpine ulcer (3 mg/kg), 41%. Besides, the ED100 in the experiment on gastric acid secretion [3] turned out to be 0.3 mg/kg. The molecule further gave a Duration with gastric acid secretion [3] above 177 min.

For the molecule `CCc1ccc(C(O)CNC(=C[N+](=O)[O-])NCCSCc2cc(C)c(CN(C)C)s2)cc1` (stereo not drawn) [compound 42, N-{2-[[5-(dimethylamino)methyl-4-methyl-2-thienyl]methylthio]ethyl}-N'-[2-(4-ethylphenyl)-2-hydroxyethyl]-2-nitro-1,1-ethenediamine], the inhibition in vivo at 1 mg/kg in the experiment with gastric acid secretion [2] was determined as 57%. In experiment [4], the Potency ratio is reported as 14.1 and the IC50 was determined as 237 nM.

Take `O=[N+]([O-])C=C(NCCCOc1cccc(CN2CCCCC2)c1)NCC(O)c1ccc2c(c1)OCO2` (stereo not drawn) [compound 17, N-[2-hydroxy-2-(3,4-methylenedioxyphenyl)ethyl]-2-nitro-N'-[3-(3-piperidinomethylphenoxy)propyl]-1,1-ethenediamine]: the inhibition in vivo at 3 mg/kg with gastric acid secretion [2] stood at 70%. For the same molecule, in experiment [4], the Potency ratio is recorded as 15.4 and the IC50 stood at 218 nM. Besides, in the experiment with gastric acid secretion [3], the ED100 was found to be 0.15 mg/kg and the Duration is recorded as above 280 min.

Consider `Cc1cc(CSCCNC(=C[N+](=O)[O-])NCC(O)c2cccc(C(F)(F)F)c2)sc1CN(C)C` (stereo not drawn) [compound 33, N-{2-[[5-(dimethylamino)methyl-4-methyl-2-thienyl]methylthio]ethyl}-N'-[2-hydroxy-2-(3-trifluoromethylphenyl)ethyl]-2-nitro-1,1-ethenediamine], for which the Inhibition percentage in experiment [1] (1 mg/kg) is 32%; in experiment [1] (3 mg/kg), 75%; in the experiment on Reserpine ulcer (1 mg/kg), 42%; in the experiment on Reserpine ulcer (3 mg/kg), 68%. Further, in experiment [1], the Potency ratio came to 9.8. The results for the ED50 (in experiment [1]; in the experiment with Reserpine ulcer) were 1.58 mg/kg and 1.4 mg/kg, respectively. Besides, the inhibition in vivo at 1 mg/kg in the experiment with gastric acid secretion [2] stood at 55%. In the experiment with gastric acid secretion [3], the ED100 was found to be 0.3 mg/kg. This molecule had a Duration in the experiment with gastric acid secretion [3] above 240 min.

On to `CNC(=C[N+](=O)[O-])NCCSCc1ccc(CN(C)C)o1` [Ranitidine, reference compound], for which the Potency ratio is recorded as 1.8 in the experiment on Indomethacin ulcer, 2.4 in experiment [1] and 5.1 in experiment [5] (Cimetidine = 1). For the same molecule, the ED50 in the experiment with Indomethacin ulcer (Rattus norvegicus, oral) is 15.5 mg/kg; in experiment [1], 6.4 mg/kg; in experiment [5] (Rattus norvegicus, 18 h, oral, mepirizole-induced duodenal ulcer, read-out: ID50 (the source's name)), 32 mg/kg. Besides, the inhibition in vivo at 10 mg/kg was found to be 18% in the experiment with Indomethacin ulcer (Rattus norvegicus, 10 mg/kg, oral, read-out: Inhibition percentage) and 56% with gastric acid secretion [2] (10 mg/kg). For the same molecule, the inhibition in vivo at 30 mg/kg in the experiment with Indomethacin ulcer (Rattus norvegicus, 30 mg/kg, oral, read-out: Inhibition percentage) worked out at 98%; in the experiment with gastric acid secretion [2] (30 mg/kg), 91%. The Inhibition percentage was 7% in experiment [1] (3 mg/kg); 80% in experiment [1] (10 mg/kg); 49% in experiment [5] (30 mg/kg, oral); 78% in experiment [5] (100 mg/kg, oral); 33% in the experiment with Reserpine ulcer (30 mg/kg); 40% in the experiment on Reserpine ulcer (100 mg/kg). Besides, the inhibition in vivo at 3 mg/kg in the experiment on gastric acid secretion [2] was determined as 17%. Besides, the ED100 in the experiment with gastric acid secretion [3] was found to be 0.5 mg/kg. Besides, the Duration with gastric acid secretion [3] is 92 min.

Turning to `CN(C)Cc1ccc(CSCCNC(=C[N+](=O)[O-])NCC(O)c2ccccc2F)o1` (stereo not drawn) [compound 4, N-{2-[[5-(dimethylamino)methyl-2-furyl]methylthio]ethyl}-N'-[2-(2-fluorophenyl)-2-hydroxyethyl]-2-nitro-1,1-ethenediamine], the inhibition in vivo at 3 mg/kg in the experiment with gastric acid secretion [2] is 75%. In addition, in experiment [4], the Potency ratio came to 14.9 and the IC50 worked out at 225 nM. Further, in the experiment with gastric acid secretion [3], the ED100 was 0.04 mg/kg and the Duration was 220 min.

With `Cc1cc(CSCCNC(=C[N+](=O)[O-])NCC(O)c2cccc(Br)c2)sc1CN(C)C` (stereo not drawn) [compound 32, N-[2-(3-bromophenyl)-2-hydroxyethyl]-N'-{2-[[5-(dimethylamino)methyl-4-methyl-2-thienyl]methylthio]ethyl}-2-nitro-1,1-ethenediamine], the Potency ratio in the experiment on Indomethacin ulcer is on record as 15.2. Also, the ED50 in the experiment on Indomethacin ulcer (Rattus norvegicus, oral) is 1.81 mg/kg; in the experiment with Reserpine ulcer, 2.15 mg/kg. Also, the inhibition in vivo at 1 mg/kg in the experiment on Indomethacin ulcer (setting [6]) was determined as 24%. In the experiment with Indomethacin ulcer (Rattus norvegicus, 3 mg/kg, oral, read-out: Inhibition percentage), the inhibition in vivo at 3 mg/kg is 72%. In addition, the inhibition in vivo at 1.5 mg/kg in the experiment on gastric acid secretion [2] (1.5 mg/kg) was determined as 60%. Further, the Inhibition percentage in the experiment on Reserpine ulcer (1 mg/kg) came out at 38%; with Reserpine ulcer (3 mg/kg) it was 55%. Also, the ED100 with gastric acid secretion [3] was 0.3 mg/kg. Moreover, in the experiment with gastric acid secretion [3], the Duration is above 220 min.
